Experimental data: patent publication US8106055B2, “Substituted amide compounds” (Gruenenthal GmbH, priority 2007, dated 2012)
Like-named read-outs stand apart in the source and are kept apart here.

How the values were obtained:
[1] = target: T1, serotonin (5-HT) reuptake (Rattus norvegicus, UniProt P31652); assay: Inhibition of serotonin (5HT) reuptake in synaptosomes from rat brain; type: biochemical; details: test concentration of 10 μM; for inhibition at 10 µM: read-out: 5-HT (inhibition of reuptake of serotonin, % inhibition)
T1 construct: synaptosomes are freshly isolated from areas of the rat brain; from tissue; host or cells: rat brain synaptosomes (P2 fraction)
Method: Binding data of the compounds on the μ opioid receptor and data on the inhibition of reuptake of serotonin (5-HT) are given in Table 1. The data for the μ receptor were measured at a test concentration of 1 μM, and those for the serotonin reuptake at 10 μM. The values are stated in % inhibition.
Inhibition of Serotonin (5HT) Reuptake
In order to be able to carry out these in vitro studies, synaptosomes are freshly isolated from areas of the rat brain. In each case a so-called “P2” fraction prepared in accordance with the instructions of Gray and Whittaker (E. G. Gray and V. P. Whittaker (1962) J. Anat. 76, 79-88) is prepared. For the NA uptake, these vesicular particles are isolated from the hypothalamus of male rat brains.
A detailed description of the method can be found in the literature (M. Ch. Frink, H.-H. Hennies, W. Englberger, M. Haurand and B. Wilffert (1996) Arzneim.-Forsch./Drug Res. 46 (III), 11, 1029-1036).

human μ opiate receptor = target: T2, human μ opiate receptor (Homo sapiens, UniProt P35372); assay: Affinity for the human μ opiate receptor ([3H]-naloxone displacement, CHO-K1 receptor membrane preparation, SPA); type: binding; details: test concentration of 1 μM; for inhibition at 1 µM: read-out: μ (binding on the μ opioid receptor, % inhibition)
T2 construct: purchased PerkinElmer Life Sciences, Zaventem, Belgium RB-HOM; host or cells: CHO-K1 cells (membrane preparation)
In short: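 Displacement of 1 nmol/l [3H]-naloxone measured by SPA counting after 90 min at room temperature, using human μ receptor CHO-K1 membrane preparation in Tris-HCl buffer with 0.06% BSA. Test substances at 1 μmol/l give % inhibition; dilution series yield IC50, then Ki (Cheng-Prusoff); non-specific binding with 100 μmol/l naloxone.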

[2] = target: T3, human bradykinin 1 receptor (B1R) (Homo sapiens, UniProt P46663); assay: Functional investigation on the human bradykinin 1 receptor (B1R), Ca2+ FLIPR assay in CHO K1 hB1R cells; type: cell-based
T3 construct: expressed in transfected cells; host or cells: CHO K1 cells
T3 sequence (P46663 1-353): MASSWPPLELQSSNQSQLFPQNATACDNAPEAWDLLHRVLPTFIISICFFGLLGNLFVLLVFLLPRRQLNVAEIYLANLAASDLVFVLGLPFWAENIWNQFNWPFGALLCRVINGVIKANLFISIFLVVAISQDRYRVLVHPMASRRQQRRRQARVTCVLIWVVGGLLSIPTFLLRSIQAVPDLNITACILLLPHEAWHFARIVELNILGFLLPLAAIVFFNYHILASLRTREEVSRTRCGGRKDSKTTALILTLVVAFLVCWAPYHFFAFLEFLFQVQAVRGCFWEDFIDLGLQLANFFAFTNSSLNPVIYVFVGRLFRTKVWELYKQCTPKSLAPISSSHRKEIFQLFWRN
In short: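 Fluo-4 Ca2+ readout, peak fluorescence. Stable CHO K1 transfectants; compound pre-incubated 10-20 min, then EC80 agonist—Lys-Des-Arg9-BK for hB1R, Des-Arg9-BK for rB1R. % inhibition vs maximal inhibition; IC50 from multiple concentrations, duplicate/triplicate, ≥2 independent runs.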

[3] = CHO-K1, B1R antagonism human, test substance 10 μM, Ca2+ FLIPR, CHO K1 hB1R cells, read-out: B1R Ant. h [10 μM] % Inhibition

T2 sequence (P35372 whole entry): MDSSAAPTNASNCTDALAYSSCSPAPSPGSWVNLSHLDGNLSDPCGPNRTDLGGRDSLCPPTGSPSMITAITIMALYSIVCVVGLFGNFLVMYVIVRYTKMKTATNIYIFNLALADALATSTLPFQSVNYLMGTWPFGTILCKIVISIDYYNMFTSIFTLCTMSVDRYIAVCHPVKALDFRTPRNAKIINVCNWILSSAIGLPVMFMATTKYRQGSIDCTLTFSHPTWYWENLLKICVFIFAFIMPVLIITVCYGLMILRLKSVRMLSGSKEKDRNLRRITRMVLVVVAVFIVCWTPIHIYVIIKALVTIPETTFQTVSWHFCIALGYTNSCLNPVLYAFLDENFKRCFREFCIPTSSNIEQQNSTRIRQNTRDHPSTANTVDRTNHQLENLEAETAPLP
T1 sequence (P31652 whole entry): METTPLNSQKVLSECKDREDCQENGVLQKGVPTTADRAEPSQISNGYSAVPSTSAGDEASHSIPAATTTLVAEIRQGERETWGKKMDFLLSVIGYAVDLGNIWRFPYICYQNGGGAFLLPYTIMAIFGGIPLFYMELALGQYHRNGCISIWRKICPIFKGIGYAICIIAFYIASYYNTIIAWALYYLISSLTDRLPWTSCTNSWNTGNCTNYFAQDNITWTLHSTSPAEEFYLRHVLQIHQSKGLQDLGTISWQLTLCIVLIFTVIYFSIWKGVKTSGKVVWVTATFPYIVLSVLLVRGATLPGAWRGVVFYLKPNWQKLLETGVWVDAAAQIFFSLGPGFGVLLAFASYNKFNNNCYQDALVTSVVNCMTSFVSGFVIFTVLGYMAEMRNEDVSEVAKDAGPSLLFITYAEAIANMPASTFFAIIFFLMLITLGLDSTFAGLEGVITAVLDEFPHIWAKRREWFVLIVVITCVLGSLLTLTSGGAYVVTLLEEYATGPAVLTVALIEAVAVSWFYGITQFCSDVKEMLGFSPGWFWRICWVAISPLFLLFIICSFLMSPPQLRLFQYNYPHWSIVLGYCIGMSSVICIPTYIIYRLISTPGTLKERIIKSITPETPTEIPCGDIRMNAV

| Compound | μ (binding on the μ opioid receptor, % inhibition) (human μ opiate receptor) | inhibition at 10 µM [1] | 5-HT (inhibition of reuptake of serotonin, % inhibition) [1] | also measured |
| --- | --- | --- | --- | --- |
| CC(Oc1ccccc1)C(=O)NCC1CCC(C(c2ccc(Cl)cc2)N(C)C)CC1 (single isomer, unassigned) [Example 237] | 81% |  |  | 5-HT (inhibition of reuptake of serotonin, % inhibition) ([1]; 10 µM): 52% |
| CC(Oc1ccccc1)C(=O)NCC1CCC(C(c2ccc(Cl)cc2)N(C)C)CC1 (single isomer, unassigned) [Example 238] | 81% |  |  | 5-HT (inhibition of reuptake of serotonin, % inhibition) ([1]; 10 µM): 38% |
| CC(Oc1ccccc1)C(=O)NCC1CCC(C(c2cccs2)N(C)C)CC1 (stereo not shown) [Example 2, N-((4-((dimethylamino)(thiophen-2-yl)methyl)cyclohexyl)methyl)-2-phenoxypropanamide] |  | 69% |  |  |
| COc1ccc(S(=O)(=O)N2CCCCC2CCOCC(=O)NC2CCC(C(c3ccccc3)N(C)C)CC2)cc1 (stereo not shown) [Example 3, N-(4-((dimethylamino)(phenyl)methyl)cyclohexyl)-2-(2-(1-(4-methoxyphenylsulfonyl)piperidin-2-yl)ethoxy)acetamide] |  | 92% |  | inhibition at 10 µM [2, 3]: 69%; inhibition at 1 µM (human μ opiate receptor): 99% |
| CN(C)C(c1ccccc1)C1CCC(NC(=O)COCC2CCCCN2S(=O)(=O)c2cccc(Cl)c2Cl)CC1 (stereo not shown) [Example 24, 2-((1-(2,3-dichlorophenylsulfonyl)piperidin-2-yl)methoxy)-N-(4-((dimethylamino)(phenyl)methyl)cyclohexyl)acetamide] |  | 67% |  | inhibition at 10 µM [2, 3]: 99%; inhibition at 1 µM (human μ opiate receptor): 97% |
| COc1cc(C)c(S(=O)(=O)N(C)CCOCC(=O)NCC2CCC(C(c3ccccc3)N(C)C)CC2)c(C)c1C (stereo not shown) [Example 40, N-((4-((dimethylamino)(phenyl)methyl)cyclohexyl)methyl)-2-(2-(4-methoxy-N,2,3,6-tetramethylphenylsulfonamido)ethoxy)acetamide] |  | 84% |  | inhibition at 10 µM [2, 3]: 99%; inhibition at 1 µM (human μ opiate receptor): 96% |
| CC(Oc1ccccc1)C(=O)NCC1CCC(C(c2ccccc2)N(C)C)CC1 (stereo not shown) [Example 50, N-((4-((dimethylamino)(phenyl)methyl)cyclohexyl)methyl)-2-phenoxypropanamide] |  | 65% |  |  |
| CN(C)C(c1ccccc1)C1CCC(NC(=O)COCCN(Cc2ccccc2)S(=O)(=O)c2ccccc2)CC1 (stereo not shown) [Example 51, 2-(2-(N-benzylphenylsulfonamido)ethoxy)-N-(4-((dimethylamino)(phenyl)methyl)cyclohexyl)acetamide] |  | 88% |  | inhibition at 10 µM ([2]; CHO-K1, read-out: B1R Ant. h [10 μM] % Inhibition): 9%; inhibition at 1 µM (human μ opiate receptor): 95% |
| CC(Oc1ccccc1)C(=O)NCC1CCC(C(c2cccc(F)c2)N(C)C)CC1 (stereo not shown) [Example 79, N-((4-((dimethylamino)(3-fluorophenyl)methyl)cyclohexyl)methyl)-2-phenoxypropanamide] |  |  |  | 5-HT (inhibition of reuptake of serotonin, % inhibition) ([1]; 10 µM): 64% |
| CN(C)C(c1ccccc1)C1CCC(NC(=O)COCC2CCCCN2S(=O)(=O)c2ccc(Cl)cc2)CC1 (stereo not shown) [Example 95, 2-((1-(4-chlorophenylsulfonyl)piperidin-2-yl)methoxy)-N-(4-((dimethylamino)(phenyl)methyl)cyclohexyl)acetamide] |  | 84% |  | inhibition at 10 µM [2, 3]: 22%; inhibition at 1 µM (human μ opiate receptor): 91% |
| CC(Oc1ccccc1)C(=O)NCC1CCC(C(c2cccc(F)c2)N(C)C)CC1 (stereo not shown) [Example 108, N-((4-((dimethylamino)(3-fluorophenyl)methyl)cyclohexyl)methyl)-2-phenoxypropanamide] |  | 63% |  | inhibition at 1 µM (human μ opiate receptor): 91% |
| CC(Oc1ccccc1)C(=O)NCC1CCC(C(c2cccc(F)c2)N(C)C)CC1 (stereo not shown) [Example 122, N-((4-((dimethylamino)(3-fluorophenyl)methyl)cyclohexyl)methyl)-2-phenoxypropanamide] |  |  |  | 5-HT (inhibition of reuptake of serotonin, % inhibition) ([1]; 10 µM): 57% |
| CN(C)C(c1ccccc1)C1CCC(CCNC(=O)COCc2ccccc2)CC1 (stereo not shown) [Example 134, 2-(benzyloxy)-N-(2-(4-((dimethylamino)(phenyl)-methyl)cyclohexyl)ethyl)acetamide] |  | 67% |  |  |
| CC(Oc1ccccc1)C(=O)NC1CCC(C(c2cccc(F)c2)N(C)C)CC1 (stereo not shown) [Example 153, N-(4-((dimethylamino)(3-fluorophenyl)methyl)cyclohexyl)-2-phenoxypropanamide] |  | 27% |  |  |
| CC(Oc1ccccc1)C(=O)NC1CCC(C(c2ccccc2)N(C)C)CC1 (stereo not shown) [Example 181, N-(4-((dimethylamino)(phenyl)methyl)cyclohexyl)-2-phenoxypropanamide] |  | 46% |  |  |
| CC(Oc1ccccc1)C(=O)NCC1CCC(C(c2ccc(F)cc2)N(C)C)CC1 (stereo not shown) [Example 236] | 81% |  | 63% |  |
| CN(C)C(c1ccccc1)C1CCC(NC(=O)COCc2ccccc2)CC1 (stereo not shown) [Example 245] | 80% |  | 59% |  |

| Compound | μ (binding on the μ opioid receptor, % inhibition) (human μ opiate receptor) | inhibition at 10 µM [1] | 5-HT (inhibition of reuptake of serotonin, % inhibition) [1] | also measured |
| --- | --- | --- | --- | --- |
| CC(Oc1ccccc1)C(=O)NCCC1CCC(C(c2ccccc2)N(C)C)CC1 (stereo not shown) [Example 270] | 77% |  | 73% |  |
| CC(Oc1ccccc1)C(=O)NCCC1CCC(C(c2cccs2)N(C)C)CC1 (stereo not shown) [Example 315] | 72% |  | 61% |  |
| CN(C)C(c1ccccc1)C1CCC(NC(=O)COc2ccc(Cl)cc2)CC1 (stereo not shown) [Example 316] | 72% |  | 59% |  |
| CN(C)C(c1cccc(F)c1)C1CCC(NC(=O)COCc2ccccc2)CC1 (stereo not shown) [Example 353] | 67% |  | 60% |  |
| CC(=O)OC(C(=O)NCC1CCC(C(c2ccc(Cl)cc2)N(C)C)CC1)c1ccccc1 (stereo not shown) [Example 360] | 66% |  | 15% |  |
| CCOC(=O)C(=O)NCC1CCC(C(CCc2ccccc2)N(C)C)CC1 (stereo not shown) [Example 421] | 57% |  | 26% |  |
| CC(Oc1ccccc1)C(=O)NCCC1CCC(C(c2ccc(F)cc2)N(C)C)CC1 (stereo not shown) [Example 455] | 51% |  | 74% |  |
| CN(C)C(c1ccc(Cl)cc1)C1CCC(CCNC(=O)COCc2ccccc2)CC1 (stereo not shown) [Example 482] | 47% |  | 55% |  |
| CC(Oc1ccccc1)C(=O)NCC1CCC(C(CCc2ccccc2)N(C)C)CC1 (stereo not shown) [Example 495] | 44% |  | 48% |  |
| CN(C)C(c1cccc(F)c1)C1CCC(NC(=O)COc2ccc(Cl)cc2)CC1 (stereo not shown) [Example 505] | 42% |  | 59% |  |
| CN(C)C(c1ccc(F)cc1)C1CCC(NC(=O)COCc2ccccc2)CC1 (stereo not shown) [Example 529] | 37% |  | 59% |  |
| CC(Oc1ccccc1)C(=O)NC1CCC(C(CCc2ccccc2)N(C)C)CC1 (stereo not shown) [Example 545] |  |  |  | 5-HT (inhibition of reuptake of serotonin, % inhibition) ([1]; 10 µM): 52%; μ (binding on the μ opioid receptor, % inhibition) (human μ opiate receptor; 1 µM): 30% |
| CN(C)C(CCc1ccccc1)C1CCC(NC(=O)COc2ccc(Cl)cc2)CC1 (stereo not shown) [Example 564] | 24% |  | 47% |  |
| CC(Oc1ccccc1)C(=O)NC1CCC(C(CCc2ccccc2)N(C)C)CC1 (stereo not shown) [Example 577] |  |  |  | 5-HT (inhibition of reuptake of serotonin, % inhibition) ([1]; 10 µM): 16%; μ (binding on the μ opioid receptor, % inhibition) (human μ opiate receptor; 1 µM): 14% |
| COC(=O)C(=O)NCCC1CCC(C(c2ccccc2)N(C)C)CC1 (stereo not shown) [Example 579] | 11% |  | 59% |  |
| CN(C)C(CCc1ccccc1)C1CCC(NC(=O)COCc2ccccc2)CC1 (stereo not shown) [Example 582] | 9% |  | 75% |  |
